The record followed here is ChEMBL document CHEMBL1201862, “PubChem BioAssay data set” (2004).

Test systems include UACC-257; HOP-92; COLO 205; HL-60; NCI-H522; OVCAR-8; ACHN; SW-620; LOX IMVI; SK-MEL-2; RPMI-8226; NCI/ADR-RES; UACC-62; RXF 393; NCI-H23; T47D; MOLT-4; BT-549; OVCAR-4; M14.
Experiment in all cases: NCI-60 cell line screen, 48 h

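These data come from cells grown in 96-well plates and exposed to compound for 48 hours at five concentrations. At the GI50, growth is halved.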 Calls of active or inactive are those of the source. Cut-off read from the data, not from the text of the source: active = GI50 up to about 1.1 µM and inactive = higher.

For `C/C(=N\N=C(/[SeH])N1CC2CCC(CC2)C1)c1ccccn1`, the GI50 was 0.0112 µM (active) with UACC-257; 0.169 µM (active) with HOP-92; < 0.01 µM (active) in the test with COLO 205; 0.0166 µM (active) in the test with HL-60; 0.161 µM (active) in the test with NCI-H522; 0.0137 µM (active) with OVCAR-8. Besides, the GI50 with ACHN was 0.215 µM (active); in the test on SW-620, 0.0139 µM (active); in the test with LOX IMVI it was 0.0244 µM (active); in the test on SK-MEL-2, 0.156 µM (active); in the test on RPMI-8226 it was < 0.01 µM (active); in the test on NCI/ADR-RES, < 0.01 µM (active). The GI50 in the test with UACC-62 is 0.0596 µM (active); in the test on RXF 393 it was 0.0291 µM (active); with NCI-H23 it was 0.052 µM (active); in the test with T47D it was 0.0556 µM (active); in the test with MOLT-4, 0.014 µM (active); with BT-549, 0.182 µM (active). Also, the results for the GI50 in the test on OVCAR-4 and in the test with M14 were 0.03 µM (active) and 0.0255 µM (active), respectively.

Turning to `CN(C)S(=O)(=O)c1ccc(Nc2ccc(O)c3c2C(=O)c2c([N+](=O)[O-])ccc(O)c2C3=O)cc1`, the GI50 in the test with UACC-257 is > 100 µM (inactive); in the test on HOP-92, > 100 µM (inactive); in the test on COLO 205, 65.8 µM (inactive); in the test on HL-60 it was > 100 µM (inactive); with NCI-H522 it was 52.8 µM (inactive); in the test with OVCAR-8, > 100 µM (inactive). Also, the GI50 with ACHN is 55 µM (inactive); in the test on SW-620, 92.3 µM (inactive); with LOX IMVI it was 64.7 µM (inactive); in the test on SK-MEL-2, > 100 µM (inactive); with RPMI-8226, > 100 µM (inactive); with NCI/ADR-RES, > 100 µM (inactive). The GI50 is > 100 µM (inactive) in the test on UACC-62; > 100 µM (inactive) in the test on RXF 393; > 100 µM (inactive) in the test on NCI-H23; > 100 µM (inactive) with T47D; 35.5 µM (inactive) in the test on MOLT-4; > 100 µM (inactive) with BT-549. Besides, the GI50 with OVCAR-4 and in the test on M14 was > 100 µM (inactive) in each case.

Regarding `Cc1ncn(-c2ccccc2O)c1C`, the GI50 is 34.9 µM (inactive) in the test on UACC-257; > 100 µM (inactive) in the test with HOP-92; > 100 µM (inactive) in the test on COLO 205; > 100 µM (inactive) in the test on HL-60; > 100 µM (inactive) in the test with NCI-H522; > 100 µM (inactive) in the test on OVCAR-8. Also, the GI50 with ACHN, in the test on SW-620, in the test on LOX IMVI, in the test with SK-MEL-2, in the test with RPMI-8226 and with NCI/ADR-RES was > 100 µM (inactive) in each case. Moreover, the GI50 in the test with UACC-62, in the test on RXF 393, in the test on NCI-H23, in the test with T47D, in the test on MOLT-4 and with BT-549 was > 100 µM (inactive) throughout. Besides, the GI50 in the test on OVCAR-4 and in the test with M14 was > 100 µM (inactive) in each case.

Take `Nc1ccc(Oc2ccc(C34CC5CC(C3)CC(c3ccc(Oc6ccc(N)c(O)c6)cc3)(C5)C4)cc2)cc1O`: the GI50 in the test on UACC-257 is 1.97 µM (inactive); in the test with HOP-92, 1.98 µM (inactive); in the test on COLO 205 it was 1.52 µM (inactive); in the test on HL-60 it was 2.12 µM (inactive); with NCI-H522, 1.54 µM (inactive); with OVCAR-8, 1.7 µM (inactive). The GI50 with ACHN was 1.72 µM (inactive); in the test on SW-620 it was 2.89 µM (inactive); in the test with LOX IMVI it was 1.69 µM (inactive); in the test with SK-MEL-2, 2.07 µM (inactive); with RPMI-8226, 2.54 µM (inactive); in the test with NCI/ADR-RES it was 2.32 µM (inactive). Also, the GI50 is 2.25 µM (inactive) in the test on UACC-62; 1.41 µM (inactive) with RXF 393; 1.79 µM (inactive) in the test on NCI-H23; 1.76 µM (inactive) in the test on T47D; 2.48 µM (inactive) with MOLT-4; 0.993 µM (active) in the test with BT-549. Besides, the GI50 with OVCAR-4 was 2.24 µM (inactive); with M14 it was 1.63 µM (inactive).

For the compound `CN(C)CCCNC(=O)c1cc(NS(=O)(=O)c2ccc3c(c2)C(=O)c2ccccc2C3=O)cn1C`, the GI50 was 19.2 µM (inactive) in the test on UACC-257; 32.1 µM (inactive) in the test with HOP-92; 23.6 µM (inactive) with COLO 205; 22.1 µM (inactive) with HL-60; 22.6 µM (inactive) in the test on NCI-H522; 40.3 µM (inactive) with OVCAR-8. Besides, the GI50 in the test with ACHN was 14.6 µM (inactive); with SW-620, 46.3 µM (inactive); in the test on LOX IMVI it was 13.8 µM (inactive); in the test with SK-MEL-2 it was 40.5 µM (inactive); in the test with RPMI-8226, 14.8 µM (inactive); in the test with NCI/ADR-RES, > 100 µM (inactive). Besides, the GI50 with UACC-62 is 20.8 µM (inactive); in the test on RXF 393, 28 µM (inactive); in the test with NCI-H23, 24.1 µM (inactive); with T47D, 35.2 µM (inactive); with MOLT-4, 32.7 µM (inactive); in the test on BT-549, 24.5 µM (inactive). Further, the GI50 in the test with OVCAR-4 was 16.8 µM (inactive); in the test with M14, 22.3 µM (inactive).

In the case of `CCOc1ccccc1/N=N/C1C(=O)N(C(=O)CC(=O)Nc2ccccc2Cl)N=C1C` (stereo not given), the GI50 is > 10 µM (inactive) in the test with UACC-257; 20.3 µM (inactive) in the test with HOP-92; > 100 µM (inactive) in the test with COLO 205; 32.8 µM (inactive) in the test with HL-60; > 100 µM (inactive) with NCI-H522; 88.3 µM (inactive) in the test with OVCAR-8. Further, the GI50 is > 100 µM (inactive) with ACHN; > 100 µM (inactive) in the test with SW-620; 43.7 µM (inactive) in the test on LOX IMVI; > 100 µM (inactive) with SK-MEL-2; 27.2 µM (inactive) in the test with RPMI-8226; 89.3 µM (inactive) with NCI/ADR-RES. The GI50 was 56 µM (inactive) with UACC-62; > 100 µM (inactive) with RXF 393; > 100 µM (inactive) in the test on NCI-H23; > 100 µM (inactive) in the test on T47D; > 100 µM (inactive) in the test on MOLT-4; 78.7 µM (inactive) in the test with BT-549. In addition, the GI50 in the test on OVCAR-4 was 71 µM (inactive); with M14, > 100 µM (inactive).

Regarding `COC(=O)/C(C#N)=C/c1cc(C(C)(C)C)c(O)c(C(C)(C)C)c1`, the GI50 in the test on UACC-257 was 1.82 µM (inactive); in the test with HOP-92, 0.662 µM (active); in the test with COLO 205 it was 1.44 µM (inactive); in the test on HL-60, 1.88 µM (inactive); in the test with NCI-H522 it was 0.984 µM (active); with OVCAR-8 it was 2.99 µM (inactive). The GI50 with ACHN was 2.77 µM (inactive); in the test with SW-620 it was 3.03 µM (inactive); in the test on LOX IMVI it was 3.95 µM (inactive); with SK-MEL-2 it was 1.73 µM (inactive); in the test with RPMI-8226, 0.401 µM (active); with NCI/ADR-RES, 1.11 µM (active). In addition, the GI50 is 1.76 µM (inactive) with UACC-62; 3.41 µM (inactive) with RXF 393; 1.42 µM (inactive) in the test with NCI-H23; 0.83 µM (active) in the test on T47D; 2.2 µM (inactive) in the test with MOLT-4; 2.77 µM (inactive) in the test with BT-549. In addition, the GI50 in the test on OVCAR-4 is 1.85 µM (inactive); in the test with M14 it was 3.12 µM (inactive).

For the compound `Cc1nn(C(=O)c2ccc(Cl)cc2)c2c1C(/C=C/c1ccccc1)SC(=N)N2` (stereo not given), the GI50 in the test on UACC-257, in the test with HOP-92, in the test on COLO 205, with HL-60, with NCI-H522 and in the test with OVCAR-8 was > 10 µM (inactive) in each case. In addition, the GI50 with ACHN, with SW-620, in the test with LOX IMVI, in the test with SK-MEL-2, with RPMI-8226 and with NCI/ADR-RES was > 10 µM (inactive) each time. In addition, the GI50 in the test on UACC-62, in the test on RXF 393, with NCI-H23, with T47D, with MOLT-4 and in the test on BT-549 was > 10 µM (inactive) throughout. The GI50 in the test with OVCAR-4 and in the test with M14 was > 10 µM (inactive) each time.

For the compound `Clc1ccc2c(NC3CCC(N4CCCCC4)CC3)ccnc2c1` (stereo not given), the GI50 in the test with UACC-257 was 14.3 µM (inactive); in the test on HOP-92, 12.6 µM (inactive); in the test with COLO 205, 11.7 µM (inactive); in the test with HL-60 it was 14.5 µM (inactive); in the test with NCI-H522 it was 20.9 µM (inactive); in the test on OVCAR-8 it was 29.4 µM (inactive). Further, the GI50 in the test on ACHN is 32.6 µM (inactive); in the test on SW-620 it was 27.7 µM (inactive); in the test with LOX IMVI, 14.9 µM (inactive); with SK-MEL-2, 18.2 µM (inactive); in the test on RPMI-8226 it was 18.1 µM (inactive); in the test on NCI/ADR-RES, 34 µM (inactive). Moreover, the GI50 was 17.9 µM (inactive) in the test with UACC-62; 18.2 µM (inactive) with RXF 393; 52.5 µM (inactive) in the test with NCI-H23; 29.4 µM (inactive) in the test with T47D; 14.6 µM (inactive) with MOLT-4; 18.5 µM (inactive) in the test with BT-549. Further, the values for the GI50 in the test on OVCAR-4 and in the test with M14 were 26.5 µM (inactive) and 5.16 µM (inactive), respectively.

With `CN1CSC(=S)N(c2cccc(C(F)(F)F)c2)C1`, the GI50 was 22.5 µM (inactive) in the test with UACC-257; 18.9 µM (inactive) in the test on HOP-92; 19 µM (inactive) in the test with COLO 205; 25.5 µM (inactive) with HL-60; 16.4 µM (inactive) with NCI-H522; 25.4 µM (inactive) in the test on OVCAR-8. The GI50 is 19 µM (inactive) in the test with ACHN; 31.6 µM (inactive) with SW-620; 20.2 µM (inactive) with LOX IMVI; 21.3 µM (inactive) in the test on SK-MEL-2; 17.5 µM (inactive) in the test on RPMI-8226; 26.9 µM (inactive) with NCI/ADR-RES. Besides, the GI50 is 16.9 µM (inactive) in the test on UACC-62; 37.2 µM (inactive) with RXF 393; 17.9 µM (inactive) in the test on NCI-H23; 31.7 µM (inactive) in the test with T47D; 24.7 µM (inactive) in the test on MOLT-4; 20.7 µM (inactive) in the test on BT-549. In addition, the GI50 with OVCAR-4 was 19.3 µM (inactive); in the test on M14 it was 17.9 µM (inactive).
